This is an account of results in patent publication US9340790B2, “Method for constructing recombinant bacterium for producing non-native protein, and utilization of same” (RIKEN, priority 2010, dated 2016).

Structures are written as SMILES. Values joined by “and” are separate entries in the source; they are usually repeats but may differ in a detail not shown here. Equal values may be shown once.

Assay type in all cases: cell-based, Escherichia coli
One assay has as its system BW25113 (prfA+ strain). As to the kind of experiment: Efficiency of non-natural amino acid introduction at UAG codon in prfA+ strain (western blotting, TRX-GST fusion). As to conditions: prfA+ condition, compared with 3-iodotyrosine. The text has this: In this experiment, a GST gene containing a UAG codon near the N terminal was introduced, together with an expression unit for introducing a non-natural amino acid, into BW25113 which was a prfA^+ strain. Then, the efficiency of translation was checked. The GST gene containing a UAG codon near the N terminal is incorporated in a plasmid so that a fusion protein of the GST and thioredoxin (TRX) is produced (refer to (a) of FIG. 31). The result is shown in (b) of FIG. 31. […] The strain shown in Lane 1 contains no construct that introduces a non-natural amino acid. As is clear from Lanes 4 to 6, strains into each of which a construct for assigning a UAG codon to 3-iodotyrosine, 4-azidophenylalanine or o-sulfotyrosine has been introduced generate total-length fusion proteins in the presence of corresponding non-natural amino acids (see arrow A in (b) of FIG. 31). Further, in these strains, proteins resulting from termination of translation at the UAG codon were also produced (see arrow B in (b) of FIG. 31). The number in parentheses below each lane indicates the percentage (%) of total-length fusion protein with respect to the sum of the proteins resulting from termination of translation and the full-length fusion protein thus produced. That is, the number indicates the efficiency of non-natural amino acid introduction at the UAG codon. […]

In a further assay the test system is BW25113RFzero-iy strain. As to conditions: LB liquid culture medium with the non-natural amino acid added, shaking at 37° C. overnight. As for the experimental part:
First, a minute amount of glycerol stock of a BW25113RFzero-iy strain was added to (i) an LB liquid culture medium and (ii) an LB liquid culture medium to which 3-iodotyrosine (IY), 3-bromotyrosine (BrY) or 3-chlorotyrosine (CIY) had been added, and incubated with shaking at 37° C. overnight. In this way, the growth of the BW25113RFzero-iy strain was examined.

The subject of assay [1] is RFzero-iy strains (BW25113RFzero-iy, HMS174RFzero-iy, BL21RFzero-iy). As to the kind of experiment: Dependence of growth on 3-iodotyrosine, spotting on non-selective LB culture medium. The following applies: non-selective LB culture medium with or without 3-iodotyrosine. As for the experimental part: Furthermore, how much the growth of each of the RFzero-iy strains depends on non-natural amino acids was checked. A cell culture having been incubated overnight was diluted, the diluted culture was spotted on (i) a non-selective LB culture medium containing 3-iodotyrosine and (ii) a non-selective LB culture medium containing no 3-iodotyrosine. The media were further incubated. […] This is consistent with the fact that UAG translation activity is necessary in a cell to avoid lethality caused by prfA knockout.

For another assay, the system named is HST08. Put plainly: Chloramphenicol (Cm) resistance of cat transformants. The text has this: (§1) Furthermore, a RFzero-q strain was transformed with a mutated gene which codes for cat, and in which mutated gene there are ten amber codons in ORF (such a mutated gene is referred to as cat(10Am)). […] The “X”s in the amino acid sequence shown in (b) of FIG. 5 indicate positions of amber codons of the cat(10Am), and are glutamic acids in the case of the RFzero-q strain (SEQ ID NO: 18).
(§2) In order to examine if the UAG translation efficiency was improved, a cat(13Am) in which all 13 of the glutamine codons on the cat gene were replaced with UAG was introduced into the RFzero-q3 and RFzero-q7 strains, respectively. […] This was lower than Cm resistance (400 μg/ml) in the HST08 and RFzero-q strains transformed with pACYC184 carrying the wild-type cat gene.

A further assay deals with RFzero-q7 strain. As to the kind of experiment: Chloramphenicol (Cm) resistance of cat(13Am) transformant. The following applies: RFzero-q7 strain with cat(13Am). As to the method: as §2
The test system of a further assay is RFzero-q3 strain. The description is as above. As to conditions: RFzero-q3 strain with cat(13Am); listed as Cm. As to the method: as §2
In a further assay the test system is RFzero-q strain. As to the kind of experiment: Chloramphenicol (Cm) resistance of cat transformants.
Source text: In order to confirm that the RFzero-q strain allows insertion of a glutamic acid at an amber codon, the RFzero-q strain was transformed with a mutated gene which codes for chloramphenicol acetyltransferase (cat), in which mutated gene there are three amber codons in ORF (such a mutated gene is referred to as cat(3Am)). […] The “X”s in the amino acid sequence shown in (a) of FIG. 5 indicate the positions of amber codons of the cat(3Am), and are glutamic acids in the case of the RFzero-q strain (SEQ ID NO: 17).
as §1, §2

On to `[N-]=[N+]=Nc1ccc(C[C@H](N)C(=O)O)cc1` [AzF, 4-azidophenylalanine], for which the “Efficiency of non-natural amino acid introduction at the UAG codon” value with BW25113 (prfA+ strain) is on record as “lower efficiency than 3-iodotyrosine”.

Regarding `N[C@@H](Cc1ccc(O)c(Br)c1)C(=O)O` [BrY, 3-bromotyrosine], in the assay with BW25113RFzero-iy strain, the OD600 came out at 1.39.

`N[C@@H](Cc1ccc(O)c(Cl)c1)C(=O)O` [ClY, 3-chlorotyrosine] gave an OD600 in the assay on BW25113RFzero-iy strain of 1.41.

With `N[C@@H](Cc1ccc(O)c(I)c1)C(=O)O` [IY, 3-iodotyrosine], the “Dependence of growth on the non-natural amino acid” value in assay [1] is recorded as “totally depended on the presence of 3-iodotyrosine”. This compound displayed an OD600 in the assay with BW25113RFzero-iy strain of 1.36.

Turning to `O=C(N[C@H](CO)[C@H](O)c1ccc([N+](=O)[O-])cc1)C(Cl)Cl` [chloramphenicol], in the assay on HST08 (HST08 into which cat(10Am) had been introduced), the “Cm concentration at which the strain did not grow” value is < 10 µg/mL. Besides, the Cm resistance in the assay with HST08 (HST08 transformed with pACYC184 carrying the wild-type cat gene) was 400 µg/mL; with RFzero-q7 strain, 200 µg/mL; in the assay with RFzero-q3 strain, 200 µg/mL and ~400 µg/mL; in the assay with RFzero-q strain (RFzero-q strain transformed with pACYC184 carrying the wild-type cat gene) it was 400 µg/mL. For the same compound, the “Cm resistance (chloramphenicol concentration in culture medium up to which resistance was shown)” value in the assay on RFzero-q strain (RFzero-q strain transformed with cat(3Am)) came out at 400 µg/mL; in the assay on RFzero-q strain (RFzero-q strain transformed with cat(10Am)) it was 200 µg/mL; in the assay on RFzero-q strain (RFzero-q strain transformed with wild-type cat) it was 400 µg/mL.
